Experimental data as given in ChEMBL document CHEMBL1148617, “Design, synthesis, and structure-activity relationships of 1-,3-,8-, and 9-substituted-9-deazaxanthines at the human A2B adenosine receptor” (J Med Chem, 2006).
pKi: −log10 of the molar value.

What was measured:
Adenosine receptor A2a [1] = target: T1, Adenosine receptor A2a (Homo sapiens, UniProt P29274); test: Displacement of [3H]ZM-241385 from recombinant human adenosine A2A receptor expressed in HeLa cells at 0.1 uM
[2] = target: T2, Adenosine receptor A2b (Homo sapiens) (UniProt P29275); test: Displacement of [3H]DPCPX from recombinant human adenosine A2B receptor expressed in HEK293 cells at 0.1 uM; assay type: cell-based
T2 sequence (whole entry): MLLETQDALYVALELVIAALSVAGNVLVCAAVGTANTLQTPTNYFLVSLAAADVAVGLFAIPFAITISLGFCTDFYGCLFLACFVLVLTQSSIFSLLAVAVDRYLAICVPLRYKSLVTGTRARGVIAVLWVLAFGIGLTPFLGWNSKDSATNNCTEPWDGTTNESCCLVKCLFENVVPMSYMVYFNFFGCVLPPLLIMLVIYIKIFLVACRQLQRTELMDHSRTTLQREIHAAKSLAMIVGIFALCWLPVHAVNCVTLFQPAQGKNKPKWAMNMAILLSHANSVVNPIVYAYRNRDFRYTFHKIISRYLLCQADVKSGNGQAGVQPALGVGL

Adenosine receptor A2a [3] = target: T1, Adenosine receptor A2a
Description: Binding affinity to recombinant human adenosine A2A receptor

Adenosine receptor A2b = target: T3, Adenosine receptor A2b (Homo sapiens, UniProt P29275)
T3 sequence (P29275 whole entry): T2 sequence (whole entry)
Description: Binding affinity to recombinant human adenosine A2B receptor

[4] = target: T2, Adenosine receptor A2b (Homo sapiens); test: Displacement of [3H]DPCPX from recombinant human adenosine A2B receptor expressed in HEK293 cells at 0.01 uM

T1 sequence (P29274 whole entry): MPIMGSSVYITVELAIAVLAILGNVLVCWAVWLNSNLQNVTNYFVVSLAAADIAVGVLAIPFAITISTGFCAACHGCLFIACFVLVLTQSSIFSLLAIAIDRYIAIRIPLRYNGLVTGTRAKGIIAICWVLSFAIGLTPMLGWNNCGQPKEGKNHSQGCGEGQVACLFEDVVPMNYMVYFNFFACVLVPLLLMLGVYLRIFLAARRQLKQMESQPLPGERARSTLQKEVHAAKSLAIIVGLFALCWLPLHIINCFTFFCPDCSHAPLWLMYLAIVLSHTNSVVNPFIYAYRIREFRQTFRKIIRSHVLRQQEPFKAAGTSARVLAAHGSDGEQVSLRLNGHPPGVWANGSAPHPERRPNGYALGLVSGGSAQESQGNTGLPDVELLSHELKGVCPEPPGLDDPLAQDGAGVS

Row | Structure (SMILES) | inhibition (Adenosine receptor A2a [1]) [%] | inhibition [2] [%] | pKi (Adenosine receptor A2a [3]) | pKi (Adenosine receptor A2b) | inhibition [4] [%]
1 | CCOC(=O)COc1ccc(-c2cc3c([nH]2)c(=O)n(C)c(=O)n3C)cc1OC | 18 | 8 | 5.43 | 5.82 | 
2 | CC(Oc1ccc(-c2cc3c([nH]2)c(=O)n(C)c(=O)n3C)cc1)C(=O)Nc1ccc(F)cc1 (centres undefined) | 70 | 99 |  | 8.41 | 76
3 | CCOC(=O)COc1ccc(-c2cc3c([nH]2)c(=O)n(C)c(=O)n3CCCOC)cc1 | 5 | 22 | 5.73 | 6.43 | 
4 | COCCCn1c(=O)n(C)c(=O)c2[nH]c(-c3ccc(OCC(=O)O)cc3)cc21 | 11 | 35 | 4.94 | 6.67 | 
5 | CCOC(=O)COc1ccc(-c2cc3c([nH]2)c(=O)n(CC)c(=O)n3CCCOC)cc1 | 16 | 57 | 6.35 | 7.18 | 
6 | CCOC(=O)COc1ccc(-c2cc3c([nH]2)c(=O)n(C)c(=O)n3C)cc1 | 10 | 25 | 5.71 | 6.54 | 
7 | CCCn1c(=O)c2nc(-c3cc(OCC(=O)c4ccc(C(=O)OCC)cc4)nn3C)[nH]c2n(CCC)c1=O |  |  | 7.49 | < 6.00 | 
8 | O=C(COc1ccc(-c2cc3c([nH]2)c(=O)n(CC(F)(F)F)c(=O)n3CC(F)(F)F)cc1)Nc1ccccc1 | 4 | 57 |  |  | 15
9 | O=C(COc1ccc(-c2cc3c([nH]2)c(=O)n(CC2CC2)c(=O)n3CC2CC2)cc1)Nc1ccc(Br)cc1 | 89 | 94 |  |  | 43
10 | CCCn1c(=O)c2nc(-c3cc(OCC(=O)c4ccc(C(C)=O)cc4)nn3C)[nH]c2n(CCC)c1=O |  |  | 7.06 | < 6.00 | 
11 | CCCn1c(=O)c2[nH]c(-c3ccc(OC(C)C(=O)O)cc3)cc2n(CCC)c1=O (centres undefined) | 8 | 44 | 6.00 | 7.36 | 
12 | Cn1c(=O)c2[nH]c(-c3ccc(OCC(=O)Nc4cnccn4)cc3)cc2n(C)c1=O | 20 | 44 |  |  | 11
13 | CCCn1c(=O)c2[nH]c(-c3ccc(OCC(=O)Nc4ncccc4O)cc3)cc2n(C)c1=O | 22 | 71 |  |  | 31
14 | CCCn1c(=O)n(C)c(=O)c2[nH]c(-c3ccc(OCC(=O)O)cc3)cc21 | 15 | 51 | 6.11 | 7.34 | 

Results, then the compound that gave them:

Row | inhibition (Adenosine receptor A2a [1]) [%] | inhibition [2] [%] | pKi (Adenosine receptor A2a [3]) | pKi (Adenosine receptor A2b) | inhibition [4] [%] | Structure (SMILES)
15 | 0 | 35 |  | 6.88 | 10 | CCCn1c(=O)c2[nH]c(-c3ccc(OCC(=O)Nc4ccc(CC(=O)OCC)cc4)cc3)cc2n(C)c1=O
16 |  |  | 5.23 |  |  | CCCn1c(=O)c2[nH]c(-c3ccc(OCC(=O)Nc4ccc(I)cc4)cc3)nc2n(CCC)c1=O
17 | 80 | 88 |  |  | 23 | CCCn1c(=O)c2[nH]c(-c3ccc(OCC(=O)Nc4ccc(F)cc4O)cc3)cc2n(CCC)c1=O
18 | 37 | 53 |  | 6.70 | 10 | CCCn1c(=O)c2[nH]c(-c3ccc(OCC(=O)Nc4ccc(S(N)(=O)=O)cc4)cc3)cc2n(CCC)c1=O
19 |  |  | 7.72 | < 6.00 |  | CCCn1c(=O)c2[nH]c(-c3cc(OCC(=O)c4ccc(C)cc4)nn3C)nc2n(CCC)c1=O
20 | 75 | 74 |  |  | 25 | CCCn1c(=O)c2[nH]c(-c3ccc(OCC(=O)NC(CCl)c4ccccc4)cc3)cc2n(CCC)c1=O (centres undefined)
21 | 3 | 45 |  |  | 38 | CCCn1c(=O)c2[nH]c(-c3ccc(OCC(=O)NC(C(=O)O)c4ccccc4)cc3)cc2n(CCC)c1=O (centres undefined)
22 | 48 | 83 |  |  | 19 | CCCn1c(=O)c2[nH]c(-c3ccc(OCC(=O)Nc4cccnc4)cc3)cc2n(CCC)c1=O
23 |  |  | 8.67 | 5.23 |  | CCCn1c(=O)c2[nH]c(-c3ccc(OCC(=O)c4ccc(I)cc4)cc3)nc2n(CCC)c1=O
24 | 10 | 56 |  |  | 11 | CCCn1c(=O)c2nc(-c3ccc(OCC(N)=O)cc3)[nH]c2n(CCC)c1=O
25 | 19 | 36 | 6.40 | 6.80 |  | CCCn1c(=O)c2[nH]c(-c3ccc(OCC(=O)O)cc3)c(Cl)c2n(CCC)c1=O
26 | 13 | 51 |  | 7.11 | 11 | CCCn1c(=O)c2[nH]c(-c3ccc(OCC(=O)Nc4ccc(C(=O)c5ccccc5)cc4)cc3)cc2n(CCC)c1=O
